Where no end group is shown, it is not given here. [ ]: non-standard residue; d: D form.

Data set [1] relates to complementary base sequence 5′GCGTCGGC-F (SEQ ID NO:5). Put plainly: Channel Matrix Hybridization Assay. To be noted: 10 nM target, 15° C., one hour; scanned in 6× SSPE buffer; result in words. Type of data set: binding. The source says:
A center region of a two by three inch slide was derivatized with bis(2-Hydroxyethyl) aminopropyltriethoxy silane. Six nucleosides were then coupled to the entire reaction region using a synthesis process consisting of deprotection, coupling, and oxidation steps for each monomer applied. These first six nucleosides were coupled in a reaction region defined by a 0.84 inch diameter circular well in an aluminum template clamped to the two by three inch slide.
The seventh and eighth monomers were applied to the substrate by flowing monomer solutions through 100 micron channels in an etched silicon channel block (employed in Example C above). The seventh base was coupled along the long axis (vertical) of the two-inch by three-inch slide, and the eighth base perpendicular to the seventh, along the short axis (horizontal) of the slide. This defined an active matrix region of 1.28 by 1.28 cm having a density of 2,500 reaction regions per square centimeter.
The complete octamer synthesized at the channel intersections formed by the seventh and eighth coupling steps had the following sequence: […]
After completion of the synthesis process, cleavage of exocyclic amines was performed by immersion of the reaction region in concentrated ammonium hydroxide. […] Finally, the reaction region was then scanned using a laser fluorescence detection system while immersed in the buffer.

Data set [2] relates to Herz antibody 3E7. Put plainly: staining of substrate-bound peptide array with FITC-labelled antibodies, fluorescence intensity. It is filed as binding. To be noted: for overall intensity ratios YGGFL:YpGFL:pGGFL:ppGFL: fluorescence intensity of all sites on the slide after staining with FITC-labelled Herz antibody 3E7, ratio relative to ppGFL = 1.0; for fluorescence intensity of peptide sites (FIG. 19): slide stained with FITC-labelled Herz antibody 3E7, result in words. The source says: The system was used to synthesize four distinct peptides: YGGFL (SEQ ID NO:1), YpGFL (SEQ ID NO:2), pGGFL (SEQ ID NO:3), and ppGFL (SEQ ID NO:6) (the abbreviations are included in Stryer, Biochemistry, Third Ed. (1988), previously incorporated herein by reference; lower case letters indicate D-optical isomers and upper case letters indicate L-optical isomers). An entire glass substrate was derivatized with TBOC-protected aminopropyltriethoxysilane, deprotected with TFA, coated with FMOC-protected caproic acid (a linker), deprotected with piperidine, and coated with FMOC-protected Glycine-Phenylalanine-Leucine (GFL).
This FMOC-GFL-coated slide was sealed to the channel block, and all 10 grooves were deprotected with piperdine in DMF. After washing the grooves, FMOC Glycine (G) was injected in the odd grooves, and FMOC d-Proline (p) was injected in the even grooves. After a two-hour coupling time, using standard coupling chemistry, all grooves were washed with DMF. The grooves were vacuum dried, the block removed and rotated 90 degrees. After resealing, all grooves were deprotected with piperdine in DMF and washed. FMOC Tyrosine (Y) was injected in the odd grooves, and FMOC p in the even grooves. After coupling the grooves were washed and vacuum dried. Accordingly, 25 regions of each of the compounds YGGFL (SEQ ID NO:1), YpGFL (SEQ ID NO:2), pGGFL (SEQ ID NO:3), and ppGFL (SEQ ID NO:6) were synthesized on the substrate. The substrate was removed and stained with FITC-labelled antibodies (Herz antibody 3E7).

“Substrate—(3′)CGCAGCCG(5′) [full octamer]”: the “brightness (fluorescence) indicating hybridization with fluoresceinated target chain (FIG. 21)” value in data set [1] is “brightest regions”.

As for YGGFL, in data set [2], the “overall intensity ratios YGGFL:YpGFL:pGGFL:ppGFL” value came out at 1.7 and the “fluorescence intensity of peptide sites (FIG. 19)” value (from here on “fluorescence intensity”) is listed as “most intense”.

Turning to YpGFL (Y[dP]GFL; also: substrate-bound), the “overall intensity ratios YGGFL:YpGFL:pGGFL:ppGFL” value in data set [2] is 1.5.

As to pGGFL ([dP]GGFL; also: substrate-bound), in data set [2], the “overall intensity ratios YGGFL:YpGFL:pGGFL:ppGFL” value was found to be 1.1 and the “fluorescence intensity” value is “near background levels”.

As for “ppGFL ([dP][dP]GFL; also: substrate-bound)”, in data set [2], the “overall intensity ratios YGGFL:YpGFL:pGGFL:ppGFL” value came to 1.0 and the “fluorescence intensity” value was “near background levels”.

The values are drawn from patent US6943034B1, “Combinatorial strategies for polymer synthesis” (Affymetrix, Inc., priority 1991, dated 2005).
